*1 amine or outer side, *2 acyl side, *3 side chain or, on linkers, in order; H or OH if unused. Where a SMILES comes first, the peptide text is derived from it. [ ]: non-standard residue; d: D form. The star is where a group is joined. AadUreaLys(Nε) = O=C(O)CCC[C@H](NC(=O)N[C@@H](CCCCN*)C(=O)O)C(=O)O; X4 = O=C(N[C@@H](CCCCN*)C(=O)O)N[C@@H](C[C@@H](F)C(=O)O)C(=O)O; Butanoyl(4-(4-NO2Ph)) = O=C(CCCc1ccc([N+](=O)[O-])cc1)*; DOTA = O=C(O)CN1CCN(CC(=O)O)CCN(CC(=O)*)CCN(CC(=O)O)CC1; EuK = O=C(O)CC[C@H](NC(=O)N[C@@H](CCCCN*)C(=O)O)C(=O)O; Ala(9-anthryl) = N[C@@H](Cc1c2ccccc2cc2ccccc12)C(=O)O; Butanoyl(4-(4-MeO-phenyl)) = COc1ccc(CCCC(=O)*)cc1; X1 = O=C(C1CCC(CN[*:1])CC1)[*:2]; X3 = O=C(C1CCC(N[*:1])CC1)[*:2]
Tests used:
PSMA = target: T1, PSMA (Homo sapiens, UniProt Q04609); test: In vitro PSMA competitive binding assay, LNCaP cells, [18F]DCFPyL radioligand; conditions: [18F]DCFPyL 0.1 nM, read-out: PSMA binding affinity (Ki)
T1 construct: endogenous in cells; host or cells: LNCaP cells
T1 sequence (Q04609 whole entry): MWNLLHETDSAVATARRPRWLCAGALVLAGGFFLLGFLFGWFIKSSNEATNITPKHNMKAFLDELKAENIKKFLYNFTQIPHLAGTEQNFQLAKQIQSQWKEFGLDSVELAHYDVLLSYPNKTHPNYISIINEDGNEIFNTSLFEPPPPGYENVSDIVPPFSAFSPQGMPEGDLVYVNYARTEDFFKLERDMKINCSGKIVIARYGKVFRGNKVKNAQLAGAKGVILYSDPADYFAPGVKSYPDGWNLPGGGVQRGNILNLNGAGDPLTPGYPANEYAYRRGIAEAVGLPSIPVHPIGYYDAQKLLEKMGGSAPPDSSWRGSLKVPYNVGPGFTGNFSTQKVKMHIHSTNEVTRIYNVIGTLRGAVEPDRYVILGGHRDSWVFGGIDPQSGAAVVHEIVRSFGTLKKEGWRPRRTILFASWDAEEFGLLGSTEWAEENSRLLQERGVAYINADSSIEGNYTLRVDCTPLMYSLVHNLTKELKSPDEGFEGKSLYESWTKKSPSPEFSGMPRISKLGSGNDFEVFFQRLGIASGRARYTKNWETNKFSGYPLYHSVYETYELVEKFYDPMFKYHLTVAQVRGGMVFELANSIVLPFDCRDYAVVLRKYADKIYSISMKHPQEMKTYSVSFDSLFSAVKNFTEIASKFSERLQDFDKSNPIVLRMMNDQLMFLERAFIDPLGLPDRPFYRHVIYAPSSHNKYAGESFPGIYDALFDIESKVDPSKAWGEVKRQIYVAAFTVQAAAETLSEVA
Description: Inhibition constants (Ki) to PSMA were measured by in vitro competition binding assays using [^18F]DCFPyL as the radioligand. LNCaP cells which were plated onto a 24-well poly-D-lysine coated plate for 48 h (400,000/well). Growth medium was removed and replaced with HEPES buffered saline (50 mM HEPES, pH 7.5, 0.9% sodium chloride). After 1 h, [^18F]DCFPyL (0.1 nM) was added to each well (in triplicate) containing varied concentrations ([…]) of tested compounds The assay mixtures were incubated for 1 h at 37° C. with gentle agitation followed by two washes with cold HEPES buffered saline. A trypsin solution (0.25%, 400 μL) was then added to each well to harvest the cells. Radioactivity was measured by gamma counting and Ki values calculated using the ‘one site—fit Ki’ built-in model in Prism 8 (GraphPad).

Human serum albumin = target: T2, Human serum albumin (Homo sapiens, UniProt P02768); test: Human serum albumin binding assay (Transil HSA binding kit); conditions: read-out: Human albumin binding affinity (Kd)
T2 construct: purchased Sovicell
T2 sequence (P02768 25-609): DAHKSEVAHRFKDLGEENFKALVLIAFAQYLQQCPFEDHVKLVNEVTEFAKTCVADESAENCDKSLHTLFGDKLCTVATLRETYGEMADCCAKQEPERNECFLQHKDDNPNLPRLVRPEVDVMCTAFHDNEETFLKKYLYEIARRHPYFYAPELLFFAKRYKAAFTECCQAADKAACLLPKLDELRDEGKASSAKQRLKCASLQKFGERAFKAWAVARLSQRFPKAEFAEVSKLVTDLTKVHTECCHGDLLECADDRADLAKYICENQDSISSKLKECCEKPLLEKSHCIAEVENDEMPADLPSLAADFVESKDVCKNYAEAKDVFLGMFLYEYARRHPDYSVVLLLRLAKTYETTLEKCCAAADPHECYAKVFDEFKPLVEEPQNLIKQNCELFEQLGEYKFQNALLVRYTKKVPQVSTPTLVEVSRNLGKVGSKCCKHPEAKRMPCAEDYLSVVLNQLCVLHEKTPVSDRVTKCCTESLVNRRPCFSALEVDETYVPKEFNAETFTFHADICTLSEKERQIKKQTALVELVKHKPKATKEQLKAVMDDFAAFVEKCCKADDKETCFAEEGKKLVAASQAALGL
Description: Human serum albumin binding assay was performed using Transil HSA binding kit (Sovicell) according to manufacturer's recommended procedures.

| Structure (SMILES) | Ki (PSMA) | Kd (Human serum albumin) |
| --- | --- | --- |
| COc1ccc(CCCC(=O)NCC(=O)N[C@@H](CCCCNC(=O)CN2CCN(CC(=O)O)CCN(CC(=O)O)CCN(CC(=O)O)CC2)C(=O)NCC(=O)NCC2CCC(C(=O)N[C@@H](Cc3c4ccccc4cc4ccccc34)C(=O)NCCCC[C@H](NC(=O)N[C@@H](CCCC(=O)O)C(=O)O)C(=O)O)CC2)cc1 (stereo partly shown) [CCZ02009] ({Butanoyl(4-(4-MeO-phenyl))}-GK(DOTA)G[X1][Ala(9-anthryl)]-{AadUreaLys(Nε)}) | 0.12 ± 0.02 nM | 64900 ± 2200 nM |
| O=C(O)CCC[C@H](NC(=O)N[C@@H](CCCCNC(=O)[C@H](Cc1c2ccccc2cc2ccccc12)NC(=O)C1CCC(CNC(=O)CNC(=O)[C@H](CCCCNC(=O)CN2CCOCCN(CC(=O)O)CCN(CC(=O)O)CCOCCN(CC(=O)O)CC2)NC(=O)CNC(=O)CCCc2ccc([N+](=O)[O-])cc2)CC1)C(=O)O)C(=O)O (stereo partly shown) [CCZ02034] | 2.82 nM |  |
| O=C(O)CC[C@H](NC(=O)N[C@@H](CCCCNC(=O)[C@H](Cc1c2ccccc2cc2ccccc12)NC(=O)C1CCC(CNC(=O)CNC(=O)[C@H](CCCCNC(=O)CN2CCN(CC(=O)O)CCN(CC(=O)O)CCN(CC(=O)O)CC2)NC(=O)CNC(=O)CCCc2ccc([N+](=O)[O-])cc2)CC1)C(=O)O)C(=O)O (stereo partly shown) [CCZ02024] ({Butanoyl(4-(4-NO2Ph))}-GK(DOTA)G[X1][Ala(9-anthryl)]-EuK) | 1.54 nM |  |
| O=C(O)CCC[C@H](NC(=O)N[C@@H](CCCCNC(=O)[C@H](Cc1c2ccccc2cc2ccccc12)NC(=O)C1CCC(NC(=O)CN2CCN(CC(=O)O)CCN(CC(=O)O)CCN(CC(=O)O)CC2)CC1)C(=O)O)C(=O)O (stereo partly shown) [CCZ02012] | 1.67 nM |  |
| COc1ccc(CCCC(=O)NCC(=O)N[C@@H](CCCCNC(=O)CN2CCN(CC(=O)O)CCN(CC(=O)O)CCN(CC(=O)O)CC2)C(=O)NCC(=O)NCC(=O)NCC(=O)NCC(=O)NCC2CCC(C(=O)N[C@@H](Cc3c4ccccc4cc4ccccc34)C(=O)NCCCC[C@H](NC(=O)N[C@@H](CCCC(=O)O)C(=O)O)C(=O)O)CC2)cc1 (stereo partly shown) [CCZ02059] ({Butanoyl(4-(4-MeO-phenyl))}-GK(DOTA)GGGG[X1][Ala(9-anthryl)]-{AadUreaLys(Nε)}) | 10.8 ± 3.28 nM |  |
| COc1ccc(CCCC(=O)NCC(=O)N[C@@H](CCCCNC(=O)CN2CCN(CC(=O)O)CCN(CC(=O)O)CCN(CC(=O)O)CC2)CC(=O)NCC2CCC(C(=O)N[C@@H](Cc3c4ccccc4cc4ccccc34)C(=O)NCCCC[C@H](NC(=O)N[C@@H](CCCC(=O)O)C(=O)O)C(=O)O)CC2)cc1 (stereo partly shown) [CCZ02015] | 1.09 ± 0.3 nM |  |

More lines, in order of falling Ki (PSMA), values ahead:

| Ki (PSMA) | Kd (Human serum albumin) | Structure (SMILES) |
| --- | --- | --- |
| 11.2 nM |  | O=C(O)CCC[C@H](NC(=O)N[C@@H](CCCCNC(=O)[C@H](Cc1c2ccccc2cc2ccccc12)NC(=O)C1CCC(NC(=O)CNC(=O)C[C@H](CCCCNC(=O)CN2CCN(CC(=O)O)CCN(CC(=O)O)CCN(CC(=O)O)CC2)NC(=O)CNC(=O)CCCc2ccc([N+](=O)[O-])cc2)CC1)C(=O)O)C(=O)O (stereo partly shown) [CCZ02022] |
| 5.71 nM |  | O=C(O)CCC[C@H](NC(=O)N[C@@H](CCCCNC(=O)[C@H](Cc1c2ccccc2cc2ccccc12)NC(=O)C1CCC(NC(=O)CNC(=O)[C@H](CCCCNC(=O)CN2CCN(CC(=O)O)CCN(CC(=O)O)CCN(CC(=O)O)CC2)NC(=O)CNC(=O)CCCc2ccc([N+](=O)[O-])cc2)CC1)C(=O)O)C(=O)O (stereo partly shown) [CCZ02021] ({Butanoyl(4-(4-NO2Ph))}-GK(DOTA)G[X3][Ala(9-anthryl)]-{AadUreaLys(Nε)}) |
| 2.08 nM |  | COc1ccc(CCCC(=O)NCC(=O)N[C@@H](CCCCNC(=O)COCCOCCNC(=O)CN2CCN(CC(N)=O)CCN(CC(=O)O)CCN(CC(=O)O)CC2)C(=O)NCC2CCC(C(=O)N[C@@H](Cc3c4ccccc4cc4ccccc34)C(=O)NCCCC[C@H](NC(=O)N[C@@H](CCCC(=O)O)C(=O)O)C(=O)O)CC2)cc1 (stereo partly shown) [CCZ02005] |
| 1.53 ± 0.33 nM | 70100 ± 3200 nM | COc1ccc(CCCC(=O)NCC(=O)N[C@@H](CCCCNC(=O)CN2CCN(CC(=O)O)CCN(CC(=O)O)CCN(CC(=O)O)CC2)C(=O)NCC2CCC(C(=O)N[C@@H](Cc3c4ccccc4cc4ccccc34)C(=O)NCCCC[C@H](NC(=O)N[C@@H](CCCC(=O)O)C(=O)O)C(=O)O)CC2)cc1 (stereo partly shown) [HTK03170, reference compound] |
| 1.53 ± 0.21 nM |  | O=C(O)CCC[C@H](NC(=O)N[C@@H](CCCCNC(=O)[C@H](Cc1c2ccccc2cc2ccccc12)NC(=O)C1CCC(NC(=O)CN2CCN(CC(=O)O)CCN(CC(=O)O)CCN(CC(=O)O)CC2)CC1)C(=O)O)C(=O)O (stereo partly shown) [CCZ02013] |
| 1.09 ± 0.19 nM |  | COc1ccc(CCCC(=O)NCC(=O)N[C@@H](CCCCNC(=O)CN2CCN(CC(=O)O)CCN(CC(=O)O)CCN(CC(=O)O)CC2)C(=O)NCC(=O)NCC(=O)NCC2CCC(C(=O)N[C@@H](Cc3c4ccccc4cc4ccccc34)C(=O)NCCCC[C@H](NC(=O)N[C@@H](CCCC(=O)O)C(=O)O)C(=O)O)CC2)cc1 (stereo partly shown) [CCZ02060] ({Butanoyl(4-(4-MeO-phenyl))}-GK(DOTA)GG[X1][Ala(9-anthryl)]-{AadUreaLys(Nε)}) |
| 0.59 nM |  | O=C(O)CN1CCN(CC(=O)O)CCN(CC(=O)NCCCC[C@H](NC(=O)CNC(=O)CCCc2ccc([N+](=O)[O-])cc2)C(=O)NCC(=O)NCC2CCC(C(=O)N[C@@H](Cc3c4ccccc4cc4ccccc34)C(=O)NCCCC[C@H](NC(=O)N[C@@H](C[C@@H](F)C(=O)O)C(=O)O)C(=O)O)CC2)CCN(CC(=O)O)CC1 (stereo partly shown) [CCZ02025] ({Butanoyl(4-(4-NO2Ph))}-GK(DOTA)G[X1][Ala(9-anthryl)]-X4) |
| 0.48 ± 0.1 nM |  | COc1ccc(CCCC(=O)NCC(=O)N[C@@H](CCCCNC(=O)CN2CCN(CC(=O)O)CCN(CC(=O)O)CCN(CC(=O)O)CC2)C(=O)NCC(=O)NCC2CCC(C(=O)N[C@@H](Cc3c4ccccc4cc4ccccc34)C(=O)NCCCC[C@H](NC(=O)N[C@@H](C[C@@H](F)C(=O)O)C(=O)O)C(=O)O)CC2)cc1 (stereo partly shown) [CCZ02008] ({Butanoyl(4-(4-MeO-phenyl))}-GK(DOTA)G[X1][Ala(9-anthryl)]-X4) |

From patent US20250186627A1, “RADIOLABELED COMPOUNDS TARGETING THE PROSTATE-SPECIFIC MEMBRANE ANTIGEN” (PROVINCIAL HEALTH SERVICES AUTHORITY, priority 2022, published 2025)
